Assay [1] addresses T1, G12V-mutant human KRAS (amino acid residues 1-188) (Homo sapiens, UniProt P01116, G12V).
T1 construct: G12V-mutant human KRAS (amino acid residues 1-188) with FLAG tag was purified from E. coli; made in house; host or cells: E. coli
Briefly: KRAS Binding Competition Assay (AlphaScreen; biotinylated KRpep-2d analogue), G12V. The following applies: geometric mean, read-out: KRAS GMean IC50 (uM) MUTATION: G12V. (In Alpha technology, singlet oxygen from a donor bead excites a nearby acceptor bead.)

In assay [2] the target is T2, G12D-mutant human KRAS (amino acid residues 1-188) (Homo sapiens, UniProt P01116, G12D).
T2 construct: G12D or G12C-mutant human KRAS (amino acid residues 1-188) with FLAG tag; made in house; host or cells: E. coli
Put plainly: KRAS Binding Disruption Assay (AlphaScreen; biotinylated KRpep-2d analogue or RAF1-RBD), G12D. The note with it: KRAS G12D; geometric mean; read-out: KRAS GMean IC50 (uM) MUTATION: G12D. The method in brief:
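AlphaScreen readout: signal falls as compound displaces biotinylated KRpep-2d analogue or RAF1-RBD from mutant KRAS. Both partners at 5-20 nM, 1 h binding at 25° C, then 10 μg/mL Anti-Flag acceptor and streptavidin donor beads for 1 h. IC50 by nonlinear regression of % inhibition.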

Consider `O=C(N[C@@H]1CCCNC1)N1[C@@H]2CC[C@H]1CN(c1nc(OCC34CCCN3CCC4)nc3cc(-c4cc(O)cc5ccccc45)ccc13)C2` [P-0143, (1R,5S)-3-(7-(3-hydroxynaphthalen-1-yl)-2-((tetrahydro-1H-pyrrolizin-7a(5H)-yl)methoxy)quinazolin-4-yl)-N-((R)-piperidin-3-yl)-3,8-diazabicyclo[3.2.1]octane-8-carboxamide], for which the IC50 in assay [1] and in assay [2] was 0.0001 to 10 µM throughout.
On to `CN1CCC[C@H]1COc1nc(N2C[C@H]3CC[C@@H](C2)N3CC(N)=O)c2ccc(-c3cc(O)cc4ccccc34)c(F)c2n1` [P-0144, 2-((1R,5S)-3-(8-fluoro-7-(3-hydroxynaphthalen-1-yl)-2-(((S)-1-methylpyrrolidin-2-yl)methoxy)quinazolin-4-yl)-3,8-diazabicyclo[3.2.1]octan-8-yl)acetamide], for which the IC50 in assay [1] and in assay [2] was 0.0001 to 10 µM throughout.
Consider `CN1CCC[C@H]1COc1nc(N2[C@@H]3CC[C@H]2CN(CCO)C3)c2ccc(-c3cc(O)cc4ccccc34)cc2n1` [P-0145, 4-(4-((1R,5S)-3-(2-hydroxyethyl)-3,8-diazabicyclo[3.2.1]octan-8-yl)-2-(((S)-1-methylpyrrolidin-2-yl)methoxy)quinazolin-7-yl)naphthalen-2-ol], for which the IC50 in assay [1] and in assay [2] was 10 to 100 µM each time.
Consider `CN(C)CCCC(=O)N1[C@@H]2CC[C@H]1CN(c1nc(OCC34CCCN3CCC4)nc3c(F)c(-c4cc(O)cc5ccccc45)ccc13)C2` [P-0146, 4-(dimethylamino)-1-((1R,5S)-3-(8-fluoro-7-(3-hydroxynaphthalen-1-yl)-2-((tetrahydro-1H-pyrrolizin-7a(5H)-yl)methoxy)quinazolin-4-yl)-3,8-diazabicyclo[3.2.1]octan-8-yl)butan-1-one], for which the IC50 in assay [1] and in assay [2] was 0.0001 to 10 µM throughout.
Take `O=C(C1C2CCC1CNC2)N1[C@@H]2CC[C@H]1CN(c1nc(OCC34CCCN3CCC4)nc3c(F)c(-c4cc(O)cc5ccccc45)ccc13)C2` (stereo partly drawn) [P-0147, (3-azabicyclo[3.2.1]octan-8-yl)((1R,5S)-3-(8-fluoro-7-(3-hydroxynaphthalen-1-yl)-2-((tetrahydro-1H-pyrrolizin-7a(5H)-yl)methoxy)quinazolin-4-yl)-3,8-diazabicyclo[3.2.1]octan-8-yl)methanone]: the IC50 in assay [1] and in assay [2] was 0.0001 to 10 µM throughout.
Take `CN1CCC[C@H]1COc1nc(N2[C@@H]3CC[C@H]2CNC3)c2ccc(-c3cccc(C(N)=O)n3)cc2n1` [P-0148, 6-(4-((1R,5S)-3,8-diazabicyclo[3.2.1]octan-8-yl)-2-(((S)-1-methylpyrrolidin-2-yl)methoxy)quinazolin-7-yl)picolinamide]: the values for the IC50 in assay [1] and in assay [2] were 10 to 100 µM and 100 to 1000 µM, respectively.
As to `CN1CCC(CC(=O)N2[C@@H]3CC[C@H]2CN(c2nc(OCC45CCCN4CCC5)nc4c(F)c(-c5cc(O)cc6ccccc56)ccc24)C3)CC1` [P-0149, 1-((1R,5S)-3-(8-fluoro-7-(3-hydroxynaphthalen-1-yl)-2-((tetrahydro-1H-pyrrolizin-7a(5H)-yl)methoxy)quinazolin-4-yl)-3,8-diazabicyclo[3.2.1]octan-8-yl)-2-(1-methylpiperidin-4-yl)ethan-1-one], the IC50 in assay [1] and in assay [2] was 0.0001 to 10 µM each time.
Take `O=C(CCCN1CCCCC1)N1[C@@H]2CC[C@H]1CN(c1nc(OCC34CCCN3CCC4)nc3c(F)c(-c4cc(O)cc5ccccc45)ccc13)C2` [P-0150, 1-((1R,5S)-3-(8-fluoro-7-(3-hydroxynaphthalen-1-yl)-2-((tetrahydro-1H-pyrrolizin-7a(5H)-yl)methoxy)quinazolin-4-yl)-3,8-diazabicyclo[3.2.1]octan-8-yl)-4-(piperidin-1-yl)butan-1-one]: the IC50 in assay [1] and in assay [2] was 0.0001 to 10 µM in each case.
`CN1CCC[C@H]1COc1nc(N2C[C@H]3CC[C@@H](C2)N3)c2ccc(-c3ccccc3)cc2n1` [P-0151, 4-((1R,5S)-3,8-diazabicyclo[3.2.1]octan-3-yl)-2-(((S)-1-methylpyrrolidin-2-yl)methoxy)-7-phenylquinazoline]: the IC50 in assay [1] and in assay [2] was 100 to 1000 µM each time.

As usually defined, the IC50 is the midpoint of a concentration-inhibition curve.

(Values after patent publication US20230081426A1, “COMPOUNDS AND METHODS FOR KRAS MODULATION AND INDICATIONS THEREFOR” (Plexxikon Inc., priority 2020, published 2023).)
